Experimental findings from patent US9089572B2, “Inhibitors of p97” (California Institute of Technology, priority 2008, dated 2015) are described below.

Usually IC50 stands for the midpoint of a concentration-inhibition curve.

For one assay, the target named is Hamster NSF (Cricetulus griseus, UniProt P18708). Nature of the assay: In vitro ATP hydrolysis, NSF. Type of assay: biochemical. How it is done: To determine whether cysteine 522 is necessary for inhibition of p97 by compound 2, a mutant of p97 was constructed in which cysteine 522 was converted to either alanine (C522A-mp97) or threonine (C522T-mp97). The IC50 values of compound 2 were measured the against various enzymes during a 20-minute preincubation (see Table 2). Mutation of cysteine 522 in p97 to either alanine or threonine decreased sensitivity to compound 2 by greater than 100-fold. On the other hand, yeast Cdc48, which normally is quite resistant to compound 2, became nearly 30-fold more sensitive to the compound upon introduction of a cysteine in place of threonine 532.
To further address the specificity of inhibition by compound 2, its activity against two other AAA ATPases, NSF and the 26S proteasome, was assayed. Although NSF is known to be sensitive to thiol-reactive agents, it was more than 100-fold less sensitive to compound 2 than p97 (Table 2). […] The results with NSF and the 26S proteasome are noteworthy because both the active D1 domain of NSF and the Rpt3 subunit of the 26S proteasome have a cysteine in the position analogous to cysteine 522 of p97 (FIG. 3).

The next assay concerns HeLa cells. Nature of the assay: Accumulation of high molecular weight ubiquitin conjugates (anti-ubiquitin immunoblot), HeLa cells. The format is cell-based. As to conditions: 1 h at 37° C. The source says:
To evaluate whether compound 2 can target p97 activity in cells, we sought to determine whether this compound induces accumulation of high molecular weight ubiquitin conjugates, since it is known that RNAi-mediated knockdown of p97 in mammalian cells has this effect (Wojcik, C. et al. J. Cell Sci. (2004) 117, 281-292). As a positive control for this experiment, the proteasome inhibitor MG132 was used. […] The cells were then harvested, lysed, and centrifuged to generate soluble and insoluble fractions. These fractions were then immunoblotted with anti-ubiquitin antibodies to detect accumulation of high molecular weight conjugates. Blots were also probed with anti-PSTAIRE antibodies as a loading control. […] This effect is particularly pronounced in the insoluble fraction.
To evaluate whether compound 8 can target p97 activity in cells, it was determined whether this compound induces accumulation of high molecular weight ubiquitin conjugates, since it is known that RNAi-mediated knockdown of p97 in mammalian cells has this effect (Wojcik, C. et al. J. Cell Sci. (2004) 117, 281-292). The proteasome inhibitor bortezomib (velcade) was employed as a positive control for this experiment. HeLa (FIG. 25) or RPMI8226 (FIG. 26) cells were treated with Velcade, compound 8, or a combination thereof for 1 h at 37° C. The cells were then harvested and cell lysates were immunoblotted with anti-ubiquitin antibodies to detect accumulation of high molecular weight conjugates. Blots were also probed with anti-PSTAIRE antibodies as a loading control.

In assay [1] the test system is HeLa cell line that stably expresses UbG76V-GFP. Nature of the assay: Accumulation of UbG76V-GFP in HeLa cells (fluorescence microscopy). The format is cell-based. How it is done:
As a control, the same cells were treated with the proteasome inhibitor MG132. In the latter set of experiments, a HeLa cell line that stably expresses UbG76V-GFP was transfected with either wild type (WT), D1 mutant (E305Q), D2 mutant (E578Q) or E305Q, E578Q double mutant (QQ) murine 97-pcDNA4.1 plasmid (0.05 μg/100 μL) in a 96-well plate. After 23 h, the intensity of UbG76V-GFP signal was measured on a Molecular Devices ImageXpress automated fluorescence microscope. […] The direct accumulation of Ub-G76V-GFP caused by compound 2 at 25 μM is 4-fold less than that caused by MG132 at 2 μM. This is likely due to the fact that only fully folded Ub-G76V-GFP should require p97 for degradation by the proteasome.
As a second test of whether compound 8 can inhibit p97 in vivo, it was evaluated whether it can cause accumulation of the UbG76V-GFP reporter. A HeLa cell line that stably expresses UbG76V-GFP was treated with compound 8 for 1 h at 37° C., and was then evaluated by fluorescence microscopy. As a control, the same cells were treated with the proteasome inhibitor MG132. […] The level of GFP fluorescence was quantified in cells treated with compound 8 at different doses and for different periods of time (FIG. 28).

The subject of assay [2] is HEK293 cells that stably expressed TCR-GFP. Nature of the assay: Accumulation of ERAD reporter TCR-alpha-GFP. Type of assay: cell-based. As to conditions: 2 h at 37° C., fluorescence microscopy. On the procedure: Since p97 has a well-established role in ERAD, it was also determined whether compound 2 affects the accumulation of an ERAD-reporter, TCR-alpha-GFP. HEK293 cells that stably expressed TCR-GFP were treated with MG132 (see FIG. 19), compound 1 or compound 2 (FIG. 20) at the indicated concentrations for 2 h at 37° C. prior to being imaged by fluorescence microscopy to determine TCR-GFP accumulation. […] It was thus concluded that compound 2 inhibits p97 in cells, resulting in the accumulation of both soluble and insoluble high molecular weight ubiquitin conjugates and UPS substrates whose degradation depends upon p97.
HEK293 cells that stably expressed TCR-GFP were treated with the Velcade (FIG. 30) or compound 8 (FIG. 31) at the indicated concentrations for 2 h at 37° C. prior to being imaged by fluorescence microscopy to quantify TCR-GFP accumulation.

A further assay has as its system MDAMB-231. Nature of the assay: MTT cell growth assay, MDAMB-231. Type of assay: cell-based. Particulars: Homo sapiens, MDA-MB-231, 48 or 72 h, read-out: Cell line inhibition of growth GI50 MDAMB-231. On the procedure: (§1) To probe further the effect of compound 2 and related compounds 1, 3, 5, 6 and 7, various concentrations of these compounds were added to 13 different cell lines and incubated for 48 or 72 h. An MTT assay was then performed to evaluate cell growth and survival.
Background: Formazan colour is commonly taken as a measure of viable cells.

The next assay relates to 293. Nature of the assay: MTT cell growth assay, 293. The format is cell-based. As to conditions: Homo sapiens, HEK293, 48 or 72 h, read-out: Cell line inhibition of growth GI50 293. How it is done: as §1
A further assay relates to RL. Nature of the assay: MTT cell growth assay, RL. Type of assay: cell-based. Particulars: Homo sapiens, 48 or 72 h, read-out: Cell line inhibition of growth GI50 RL. On the procedure:
as §1

The next assay has as its system Molt4. Nature of the assay: MTT cell growth assay, Molt4. Type of assay: cell-based. Particulars: Homo sapiens, MOLT-4, 48 or 72 h, read-out: Cell line inhibition of growth GI50 Molt4. How it is done: as §1
A further assay has as its system HCT116 p53−/−. Nature of the assay: MTT cell growth assay, HCT116 p53−/−. The format is cell-based. Particulars: Homo sapiens, HCT-116, 48 or 72 h, read-out: Cell line inhibition of growth GI50 HCT116 p53−/−. On the procedure:
as §1

The next assay has as its system MRC5-SV40. Nature of the assay: CellTiter-Glo growth inhibition, MRC5 cells engineered to express SV40. Type of assay: cell-based. (In ATP-based viability assays light output follows the ATP content of the culture.)

Chain of Hamster NSF (P18708 whole entry): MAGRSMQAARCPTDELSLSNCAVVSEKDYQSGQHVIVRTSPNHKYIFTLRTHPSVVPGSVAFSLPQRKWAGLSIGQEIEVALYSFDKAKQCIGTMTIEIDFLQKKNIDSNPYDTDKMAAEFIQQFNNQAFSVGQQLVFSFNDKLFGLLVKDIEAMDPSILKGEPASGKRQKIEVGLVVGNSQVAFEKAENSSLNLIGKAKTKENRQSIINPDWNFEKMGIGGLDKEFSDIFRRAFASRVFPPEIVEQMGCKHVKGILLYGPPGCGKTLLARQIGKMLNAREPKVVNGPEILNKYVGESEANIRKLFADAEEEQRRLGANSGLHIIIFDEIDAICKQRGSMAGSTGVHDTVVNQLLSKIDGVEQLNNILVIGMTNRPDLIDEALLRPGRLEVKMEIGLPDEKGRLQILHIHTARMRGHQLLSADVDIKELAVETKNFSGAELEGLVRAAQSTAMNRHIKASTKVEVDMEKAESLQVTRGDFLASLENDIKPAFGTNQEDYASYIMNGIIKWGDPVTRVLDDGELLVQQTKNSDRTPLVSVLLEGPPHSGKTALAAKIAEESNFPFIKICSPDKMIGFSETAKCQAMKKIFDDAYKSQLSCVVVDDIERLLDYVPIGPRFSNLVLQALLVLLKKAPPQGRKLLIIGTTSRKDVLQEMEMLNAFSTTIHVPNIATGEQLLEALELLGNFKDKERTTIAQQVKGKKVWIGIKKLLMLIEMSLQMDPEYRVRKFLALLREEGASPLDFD

As to `C=CC(=O)Nc1ncnc2c1c(-c1ccccc1)nn2C(C)(C)C` [Compound 2], the IC50 against Hamster NSF (20-minute preincubation) stood at 105 ± 31 µM. Besides, the “NSF less sensitive than p97” value at Hamster NSF (NSF vs p97) is recorded as “more than 100 fold”. In addition, the “accumulation of high molecular weight ubiquitin conjugates, HeLa cells” value in the assay with HeLa cells is recorded as “caused accumulation of high molecular weight ubiquitin conjugates”. Besides, the “accumulation of UbG76V-GFP” value in [1] (4 hours at 37° C., fluorescence microscopy) is listed as “caused accumulation of UbG76V-GFP”. Moreover, the “direct accumulation of Ub-G76V-GFP, less than that caused by MG132 at 2 μM” value in assay [1] (compound at 25 μM vs MG132 at 2 μM) amounted to 4 fold. For the same compound, in assay [2], the “accumulation of TCR-alpha-GFP” value is recorded as “substantial TCR-alpha-GFP accumulation”. For the same compound, the GI50 with MDAMB-231 came to 1.7 ± 0.3 µM; in the assay on 293, 5.1 ± 2.3 µM; with RL, 2.1 ± 1.1 µM; with Molt4 it was 1.1 ± 0.5 µM; with HCT116 p53−/− it was 2.5 ± 1.5 µM; with MRC5-SV40 (Homo sapiens, MRC5, 48 h at 37° C., CellTiter-Glo, read-out: Cell line inhibition of growth GI50 MRC5-SV40), 7.3 ± 5.5 µM. The “greater sensitivity of SV40-transformed cells than WT cell line” value with MRC5-SV40 (MRC5-SV40 vs MRC5-WT GI50) is reported as 2 fold.
